Where a name gives a salt, the structure may show the parent alone.
Experiments:
MDA-MB-231 = experiment: Cytotoxicity against human MDA-MB-231 cells assessed as cell growth inhibition incubated for 48 hrs by SRB method; assay type: functional, cell-based; settings: MDA-MB-231, 48 h
BV-2 [1] = experiment: Anti-neuroinflammatory activity in mouse BV-2 cells assessed as inhibition of LPS-induced NO production pretreated for 1 hr followed by LPS addition measured after 24 hrs by Griess reagent based assay; assay type: functional, cell-based
PC-3 = experiment: Cytotoxicity against human PC-3 cells assessed as cell growth inhibition incubated for 48 hrs by SRB method; assay type: functional, cell-based; settings: PC-3, 48 h
ACHN = experiment: Cytotoxicity against human ACHN cells assessed as cell growth inhibition incubated for 48 hrs by SRB method; assay type: functional, cell-based
HCT-15 = experiment: Cytotoxicity against human HCT-15 cells assessed as cell growth inhibition incubated for 48 hrs by SRB method; assay type: functional, cell-based; settings: HCT-15, 48 h
NCI-H23 = experiment: Cytotoxicity against human NCI-H23 cells assessed as cell growth inhibition incubated for 48 hrs by SRB method; assay type: functional, cell-based; settings: NCI-H23, 48 h
NUGC-3 = experiment: Cytotoxicity against human NUGC-3 cells assessed as cell growth inhibition incubated for 48 hrs by SRB method; assay type: functional, cell-based; settings: NUGC-3, 48 h
BV-2 [2] = experiment: Cytotoxicity against LPS induced mouse BV-2 cells assessed as reduction in cell viability at >1 uM pretreated for 1 hr followed by LPS addition measured after 24 hrs by MTT assay; assay type: toxicity, cell-based; settings: bv-2, 25 h

Row | Compound | IC50 (MDA-MB-231) | IC50 (BV-2 [1]) | IC50 (PC-3) | IC50 (ACHN) | IC50 (HCT-15) | IC50 (NCI-H23) | IC50 (NUGC-3) | Activity (BV-2 [2])
1 | C[C@H](c1cccc2nc3c(C(=O)O)cccc3nc12)c1ccc(C(=O)O)c2nc3cccc([C@@H](C)O)c3nc12 | > 10 µM | 170 µM | > 10 µM | > 10 µM | > 10 µM | > 10 µM | > 10 µM | –
2 | C[C@@H](c1cc(C(=O)O)c2nc3cccc([C@@H](C)O)c3nc2c1)c1cccc2nc3c(C(=O)O)cccc3nc12 | > 10 µM | – | > 10 µM | > 10 µM | > 10 µM | > 10 µM | > 10 µM | –
3 | C[C@@H](O)c1cccc2nc3c(C(=O)O)cccc3nc12 | > 10 µM | 16 µM | > 10 µM | > 10 µM | > 10 µM | > 10 µM | > 10 µM | –
4 | C[C@@H](c1cccc2nc3c(C(=O)O)cccc3nc12)c1ccc(C(=O)O)c2nc3cccc([C@@H](C)O)c3nc12 | > 10 µM | 90 µM | > 10 µM | > 10 µM | > 10 µM | > 10 µM | > 10 µM | –
5 | C[C@@H](O)c1cccc2nc3c(C(=O)O[C@H](C)c4cccc5nc6c(C(=O)O)cccc6nc45)cccc3nc12 | 0.01 µM | 0.3 µM | 0.01 µM | 0.014 µM | 0.01 µM | 0.01 µM | 0.0077 µM | Toxic
6 | CC(=O)c1cccc2nc3c(C(=O)O)ccc([C@H](C)c4cccc5nc6c(C(=O)O)cccc6nc45)c3nc12 | > 10 µM | 35 µM | > 10 µM | > 10 µM | > 10 µM | > 10 µM | > 10 µM | –
7 | COc1cccc2c1C(=O)c1c(O)c3c(c(O)c1C2=O)C[C@@](O)(C(=O)CO)C[C@@H]3O[C@H]1C[C@H](N)[C@H](O)[C@H](C)O1 [DOXORUBICIN HYDROCHLORIDE] | 0.15 µM | – | – | 0.17 µM | 0.17 µM | 0.16 µM | 0.15 µM | –
8 | C[C@H](c1cc([C@@H](C)O)c2nc3cccc(C(=O)O)c3nc2c1)c1cccc2nc3c(C(=O)O)cccc3nc12 | > 10 µM | – | > 10 µM | > 10 µM | > 10 µM | > 10 µM | > 10 µM | –
9 | C[C@@H](OC(=O)c1ccccc1N)c1cccc2nc3c(C(=O)O)cccc3nc12 | > 10 µM | – | > 10 µM | > 10 µM | > 10 µM | > 10 µM | > 10 µM | –
10 | CC(=O)c1cccc2nc3c(C(=O)O[C@H](C)c4cccc5nc6c(C(=O)O)cccc6nc45)cccc3nc12 | 0.052 µM | – | 0.047 µM | 0.072 µM | 0.06 µM | 0.043 µM | 0.035 µM | –

Reference: ChEMBL document CHEMBL5143633, “Isolation, Structure Determination, and Semisynthesis of Diphenazine Compounds from a Deep-Sea-Derived Strain of the Fungus Cystobasidium laryngis and Their Biological Activities” (J Nat Prod, 2022)
